Laboratory results from the supplement of paper PMC10307832.

Key:
Assay in all cases: relative viability (nuclei count vs DMSO), 5 days (fraction); higher = more cells survive
[1] = tested on: 201T
Method in brief: (§1)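 For relative viability, nuclei counts in treated wells were divided by those in vehicle wells. Lung cancer cell lines had been pin-tool dosed in 1536-well plates the day after seeding and cultured for 5 days, then fixed and stained in one step (final 0.05% Triton X-100, 1% formaldehyde, 1 ug/ml Hoechst) and imaged at 4×. Doses were one drug alone or a fixed anchor-drug dose plus five library-drug doses (not always all listed) in √10 steps, and values are duplicate-plate medians.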

[2] = tested on: A-427
Method in brief: as §1

[3] = tested on: COR-L23
Method in brief: as §1

[4] = tested on: H3255
Method in brief: as §1

[5] = tested on: LCLC-103H
Method in brief: as §1

[6] = tested on: LCLC-97TM1
Method in brief: as §1

[7] = tested on: LK-2
Method in brief: as §1

[8] = tested on: LU99A
Method in brief: as §1

[9] = tested on: NCI-H1563
Method in brief: as §1

[10] = tested on: NCI-H1650
Method in brief: as §1

[11] = tested on: NCI-H1651
Method in brief: as §1

[12] = tested on: NCI-H1793
Method in brief: as §1

[13] = tested on: NCI-H1944
Method in brief: as §1

[14] = tested on: NCI-H2347
Method in brief: as §1

[15] = tested on: NCI-H23
Method in brief: as §1

[16] = tested on: NCI-H460
Method in brief: as §1

[17] = tested on: NCI-H650
Method in brief: as §1

[18] = tested on: NCI-H727
Method in brief: as §1

[19] = tested on: NCI-H838
Method in brief: as §1

[20] = tested on: PC-14
Method in brief: as §1

[21] = tested on: PC-3 [JPC-3]
Method in brief: as §1

[22] = tested on: RERF-LC-KJ
Method in brief: as §1

[23] = tested on: SW 1573
Method in brief: as §1

[24] = tested on: SW 900
Method in brief: as §1

SMILES: COc1cc(N2CCC(C(N)=O)CC2)ccc1Nc1nc(N)c(Cl)c(Nc2ccccc2S(=O)(=O)C(C)C)n1 [HG-5-88-01] + COc1cc2c(Oc3ccc(NC(=O)C4(C(=O)Nc5ccc(F)cc5)CC4)cc3F)ccnc2cc1OCCCN1CCOCC1 [Foretinib] (partner 0.25 µM)
- relative viability ([1]; first compound 0.04 µM): 1.18
- relative viability ([1]; first compound 0.1265 µM): 1.09
- relative viability ([1]; first compound 0.4 µM): 1.12
- relative viability ([1]; first compound 1.265 µM): 0.444
- relative viability ([1]; first compound 4 µM): 1.02
- relative viability ([2]; first compound 0.04 µM): 1.13
- relative viability ([2]; first compound 0.1265 µM): 1.13
- relative viability ([2]; first compound 0.4 µM): 0.953
- relative viability ([2]; first compound 1.265 µM): 1.08
- relative viability ([2]; first compound 4 µM): 1.08
- relative viability ([3]; first compound 0.04 µM): 0.903
- relative viability ([3]; first compound 0.1265 µM): 0.995
- relative viability ([3]; first compound 0.4 µM): 0.99
- relative viability ([3]; first compound 1.265 µM): 0.768
- relative viability ([3]; first compound 4 µM): 0.805
- relative viability ([4]; first compound 0.04 µM): 0.854
- relative viability ([4]; first compound 0.1265 µM): 0.874
- relative viability ([4]; first compound 0.4 µM): 0.856
- relative viability ([4]; first compound 4 µM): 0.649
- relative viability ([5]; first compound 0.04 µM): 0.767
- relative viability ([5]; first compound 0.1265 µM): 0.745
- relative viability ([5]; first compound 0.4 µM): 0.745
- relative viability ([5]; first compound 1.265 µM): 0.757
- relative viability ([5]; first compound 4 µM): 0.75
- relative viability ([6]; first compound 0.04 µM): 0.893
- relative viability ([6]; first compound 0.1265 µM): 0.972
- relative viability ([6]; first compound 0.4 µM): 0.882
- relative viability ([6]; first compound 1.265 µM): 0.864
- relative viability ([6]; first compound 4 µM): 0.326
- relative viability ([7]; first compound 0.04 µM): 1.13
- relative viability ([7]; first compound 0.1265 µM): 1.39
- relative viability ([7]; first compound 0.4 µM): 0.784
- relative viability ([7]; first compound 1.265 µM): 0.99
- relative viability ([7]; first compound 4 µM): 0.808
- relative viability ([8]; first compound 0.04 µM): 0.774
- relative viability ([8]; first compound 0.1265 µM): 0.751
- relative viability ([8]; first compound 0.4 µM): 0.781
- relative viability ([8]; first compound 1.265 µM): 0.83
- relative viability ([8]; first compound 4 µM): 0.801
- relative viability ([9]; first compound 0.04 µM): 1
- relative viability ([9]; first compound 0.1265 µM): 1.01
- relative viability ([9]; first compound 0.4 µM): 0.963
- relative viability ([9]; first compound 1.265 µM): 0.866
- relative viability ([9]; first compound 4 µM): 0.833
- relative viability ([10]; first compound 0.04 µM): 1.11
- relative viability ([10]; first compound 0.1265 µM): 1.2
- relative viability ([10]; first compound 0.4 µM): 1.26
- relative viability ([10]; first compound 1.265 µM): 0.751
- relative viability ([10]; first compound 4 µM): 0.836
- relative viability ([11]; first compound 0.04 µM): 0.793
- relative viability ([11]; first compound 0.1265 µM): 0.922
- relative viability ([11]; first compound 0.4 µM): 0.998
- relative viability ([11]; first compound 1.265 µM): 0.762
- relative viability ([11]; first compound 4 µM): 1.02
- relative viability ([12]; first compound 0.1265 µM): 0.787
- relative viability ([12]; first compound 0.4 µM): 0.615
- relative viability ([12]; first compound 4 µM): 0.423
- relative viability ([13]; first compound 0.04 µM): 0.874
- relative viability ([13]; first compound 0.1265 µM): 0.884
- relative viability ([13]; first compound 0.4 µM): 0.917
- relative viability ([13]; first compound 1.265 µM): 0.883
- relative viability ([13]; first compound 4 µM): 0.886
- relative viability ([14]; first compound 0.04 µM): 0.845
- relative viability ([14]; first compound 0.1265 µM): 0.974
- relative viability ([14]; first compound 0.4 µM): 1.03
- relative viability ([14]; first compound 1.265 µM): 0.65
- relative viability ([14]; first compound 4 µM): 0.452
- relative viability ([15]; first compound 0.04 µM): 1.08
- relative viability ([15]; first compound 0.1265 µM): 1.06
- relative viability ([15]; first compound 0.4 µM): 0.972
- relative viability ([15]; first compound 1.265 µM): 0.729
- relative viability ([15]; first compound 4 µM): 0.515
- relative viability ([16]; first compound 0.04 µM): 1.03
- relative viability ([16]; first compound 0.1265 µM): 1.01
- relative viability ([16]; first compound 0.4 µM): 0.929
- relative viability ([16]; first compound 1.265 µM): 0.959
- relative viability ([16]; first compound 4 µM): 0.926
- relative viability ([17]; first compound 0.04 µM): 1.1
- relative viability ([17]; first compound 0.1265 µM): 1.18
- relative viability ([17]; first compound 0.4 µM): 0.949
- relative viability ([17]; first compound 1.265 µM): 0.602
- relative viability ([17]; first compound 4 µM): 0.719
- relative viability ([18]; first compound 0.04 µM): 1.07
- relative viability ([18]; first compound 0.1265 µM): 0.843
- relative viability ([18]; first compound 0.4 µM): 0.811
- relative viability ([18]; first compound 1.265 µM): 0.55
- relative viability ([18]; first compound 4 µM): 0.581
- relative viability ([19]; first compound 0.04 µM): 0.939
- relative viability ([19]; first compound 0.1265 µM): 1.02
- relative viability ([19]; first compound 0.4 µM): 0.797
- relative viability ([19]; first compound 1.265 µM): 0.814
- relative viability ([19]; first compound 4 µM): 0.893
- relative viability ([20]; first compound 0.04 µM): 0.974
- relative viability ([20]; first compound 0.1265 µM): 0.951
- relative viability ([20]; first compound 0.4 µM): 0.806
- relative viability ([20]; first compound 1.265 µM): 0.804
- relative viability ([20]; first compound 4 µM): 0.699
- relative viability ([21]; first compound 0.04 µM): 1.07
- relative viability ([21]; first compound 0.1265 µM): 1.04
- relative viability ([21]; first compound 0.4 µM): 1.03
- relative viability ([21]; first compound 1.265 µM): 0.99
- relative viability ([21]; first compound 4 µM): 0.724
- relative viability ([22]; first compound 0.04 µM): 0.869
- relative viability ([22]; first compound 0.1265 µM): 0.849
- relative viability ([22]; first compound 0.4 µM): 0.839
- relative viability ([22]; first compound 1.265 µM): 0.836
- relative viability ([22]; first compound 4 µM): 0.846
- relative viability ([23]; first compound 0.04 µM): 0.868
- relative viability ([23]; first compound 0.1265 µM): 0.816
- relative viability ([23]; first compound 0.4 µM): 0.942
- relative viability ([23]; first compound 1.265 µM): 0.736
- relative viability ([23]; first compound 4 µM): 0.624
- relative viability ([24]; first compound 0.04 µM): 0.996
- relative viability ([24]; first compound 0.1265 µM): 1.08
- relative viability ([24]; first compound 0.4 µM): 0.926
- relative viability ([24]; first compound 1.265 µM): 0.918
- relative viability ([24]; first compound 4 µM): 0.493
